What was measured:
healthy adult males = experiment: Incremental loading exercise test with bicycle; type: in vivo, human; conditions: compared with no intake of kaempferol
Procedure: For 25 healthy adult males, 3 dosages of kaempferol-containing cookie-shaped foods (containing 2.5 mg, 10 mg, or 25 mg of kaempferol, respectively) and a placebo cookie-shaped food (kaempferol-free) were used as test foods, and a once-a-day ingestion for consecutive 8 days were repeated four times by the crossover method. 3 hours after a test food ingestion on day 1 (Single ingestion) and on day 8 (Consecutive ingestion), an incremental loading exercise with bicycle was performed while sampling the exhaled gas to determine the oxygen consumption. The Heart rate and the rating of perceived exertion were monitored during exercise. Dynamic/kinetic visual acuity was measured before and after the exercise. Details of each endpoint are given below. Oxygen consumption (VO2) (mL/min/kg) was calculated from the difference between the amount of oxygen in the inhaled gas (atmosphere) and the amount of oxygen in the exhaled gas. When a weight of the pedal approaches a subject's limit during incremental loading exercise with bicycle, a heart rate (HR) is maximized. The increase in heart rate from the resting heart rate to the maximum heart rate was defined as 100% of exercise intensity, and the oxygen consumption (VO2) was plotted at each exercise intensity. That is, for example, an exercise intensity of 50% HR is calculated by the following equation: 100×(x−Resting heart rate)/(Maximum heart rate−Resting heart rate)=50% HR, and the oxygen consumption (VO2) in which the heart rate is the “x” means “oxygen consumption (VO2) at an exercise intensity of 50% HR”. Oxygen consumption efficiency was calculated by the following equation. Oxygen consumption efficiency (VO2/VE)=oxygen consumption/ventilation The oxygen uptake efficiency slope (OUES) was calculated using the ventilation and VO2 every 1 min from the beginning of the incremental loading exercise. Specifically, a graph of linearity was obtained by plotting “logarithmic value of ventilation (VE)” on the horizontal axis and “VO2” on the vertical axis, and the slope of the linear function graph was defined as OUES. For details, see Non-Patent Document 5. Exercise intensity (% HR) and rating of perceived exertion (RPE) at the oxygen consumption (VO2) of 14 mL/min/kg and 24.5 mL/min/kg in incremental loading exercise (the levels of stair climbing and jogging, respectively) were evaluated. The calculation methods for oxygen consumption (VO2) and exercise intensity (% HR) are the same as those described above. The perceived exertion was rated by the subject according to the following table at 1-minute intervals from the beginning of the incremental loading exercise, and the scales rated by each subject were averaged to give the rating of perceived exertion (RPE).

healthy male adults = experiment: Effect on performance in 400 m run; type: in vivo, human; conditions: single ingestion, 10 mg aglycone equivalent, 3 hours before run; placebo group −0.11 seconds
Procedure: A two-group and two-phase crossover study (single ingestion) was conducted for 13 healthy male adults. In the study, a kaempferol-containing capsule-shaped food (SNR 14) wherein the aglycone equivalent value is 10 mg; and a placebo capsule-shaped food: Placebo (kaempferol free) were used as test foods. Three hours after taking the test food, the subjects sprinted 400 m, and sprinted 400 m again after a 90 minute interval. Respiratory rate and heart rate were monitored during the sprint. The expiratory mouth pressure was measured by the maximum mouth pressure method, before and after the 400 m runs, using an electronic spirometer, autospyro (Minato Medical Science Co., Ltd.). The subjects inhaled to the limit after three deep breaths in a standing position and then exhaled with full force into the mouthpiece for measurement while preventing air leakage from the nose to determine expiratory mouth pressure.

[1] = at oxygen consumption (VO2) of 14 and 24.5 mL/min/kg (stair climbing and jogging levels), single and consecutive ingestion
[2] = single ingestion and consecutive ingestion

`O=c1c(O)c(-c2ccc(O)cc2)oc2cc(O)cc(O)c12` [kaempferol] was tested, and the “oxygen consumption (VO2)” value (healthy adult males; at all exercise intensities (50%, 60%, 70%, 80%, 90%, and 100% HR), single ingestion and consecutive ingestion (8 days), 2.5, 10 or 25 mg kaempferol cookie) was “increased”, the “exercise intensity (% HR)” value (healthy adult males; [1]) was “decreased” and the “rating of perceived exertion (RPE)” value (healthy adult males; [1]) was “decreased”. The “maximum exercise load (Pedal Weight (watt))” value (healthy adult males; [2]) was “increased”, the “maximum oxygen consumption (VO2peak)” value (healthy adult males; [2]) was “increased” and the “oxygen consumption efficiency (VO2/VE)” value (healthy adult males; [2]) was “increased”. The “oxygen uptake efficiency slope (OUES)” value (healthy adult males; [2]) was “increased” and the “mean time change between the 1st and 2nd 400 m runs” value (healthy male adults) was -0.77 s.

Reference: patent US12048683B2, “Kaempferol analog-containing composition” (OTSUKA PHARMACEUTICAL CO., LTD., priority 2017, dated 2024)
